Results as given in publication doi:10.1101/2024.04.19.590329, “Quantifying and controlling the proteolytic degradation of cell adhesion peptides” (bioRxiv, 2024).
Blank lines part the entries; values can stand above or below the compound they belong to. Non-standard residues stand in square brackets, D forms with d. Residues, ends and D or L forms follow the SMILES beside them. βAla = NCCC(=O)O

Tests used:
[1] = Degradation of individual glycine-terminated peptide at 19.5 to 5,000 μM (cell type not stated); type: in vitro ADME; settings: individual peptide with glycine at the terminus, initial concentration 5,000 μM, LCMS, cell type not stated (Fig. 4A)
Description: The column temperature was a constant 29 °C. The Mass Spectrometer was operated in positive ion mode.
Data Analysis was performed on Xcalibur Software (Thermo Scientific). […] Calculated data was visualized using RStudio.

[2] = system: cells in gels, all cell types; assay: Viability of cells in gels (alamarBlue); type: cell-based, human; settings: cells in PEG gels, days 0, 3 and 7, across all cell types
Description: Cells were cultured in gels as described. A working solution was made by diluting the alamarBlue dye (Y00–100, Thermo Scientific) (1:10) with the same media cells were cultured in. The media the cells were in was replaced with one ml of working solution. One ml of working solution was also placed into 3 blank wells. The cells were then placed in the incubator 36°C, 5% CO2 for 3 hours. After 3 hours, 100 μL of the solution was sampled and placed into a 96 well plate, and fluorescence intensity was measured using a Tecan plate reader using 560Ex/590Em nm filter settings, reading from the bottom of the plate. Immediately after measurement, the alamar blue working solution was washed three times with appropriate media for each cell type being measured and placed back in the incubator. The same cells were used for each measurement during days 0, 3, and 7.

Description for hUVECs: Passage 2 of human umbilical vein endothelial cells (hUVECs) (Life Technology) were seeded into 24 well plates at a seeding density of 150,000 cells per well in 1ml of expansion media (Lifeline Cell Technology, LM-0002) containing ascorbic acid, hydrocortisone, FBS, L-Glutamine, rh-EGF, heparin, and EnGS-US (All supplements LifeFactors, LS-1122). After 24 hour the media was changed. Peptide libraries, each containing 19 peptides and the non-proteolytically degradable βFβAβAβAβAβA-NH2 internal standard, were added to the cell media for a final concentration of 37 μM per peptide. Each library was tested in triplicate per per cell type per study. 40 μl samples were collected from the media at hours 0, 1, 4, 8, 24, and 48. In-between timepoints samples were frozen −80°C. […]
Data Analysis was performed on Xcalibur Software (Thermo Scientific). Peptides were identified automatically using the Thermo Xcalibur Processing Setup window where the mass (m/z) ±0.5 AMU and expected retention times for each quantified peptide were inputted. This was later used to isolate individual peptide species from the total ion count (TIC) trace using the Thermo Xcalibur Quan Setup window, where the area under the curve was calculated and visually inspected for accuracy. […] Relative amounts of a peptide of peptide were then calculated by normalized all values to their corresponding time zero area ratio.

peptide remaining after 48 hours [1]: 5%
Compound: CC(C)[C@H](NC(=O)[C@H](Cc1ccccc1)NC(=O)[C@H](CCC(=O)O)NC(=O)CNC(=O)[C@H](CCCNC(=N)N)NC(=O)CN)C(=O)NCCC(N)=O [amine-terminated RGEFV peptides] (H-GRGEFV[βAla]-NH2)

degradation in words (hUVECs): rapidly degraded
Compound: LIAANK

Compound: cyclic GRGDSK(N3) (head to tail) [cRGD, Cyclic RGD peptide, positive control, has no terminus, tethered to PEG-DBCO hydrogel by azide]
viability within gels, in words [2]: greatest viability
